Experimental data: patent US20260285909A1, “PEPTIDES FOR ANTIMICROBIAL THERAPY” (Karl-Franzens-Universität Graz, priority 2023, published 2026)

Experiments:
[1] = test system: human erythrocytes; experiment: Hemolysis assay; assay type: cell-based
Procedure: In the context of the present invention, the test whether a peptide has a hemolytic activity which is lower than the hemolytic activity of peptide OP-145 (acetyl-[…]-amide (SEQ ID NO: 50)) may be performed according to any method known in the art, as for instance disclosed in Avrahami & Shai, 2004. In particular, a 0.5% erythrocyte solution in phosphate-buffered saline is exposed to the respective peptide (e.g. at 1 μM or 10 μM or 20 μM or 50 μM) at 37° C. for 1 h; hemolysis is determined by measuring optical density of the cell supernatants at 415 nm. More specifically, the assay may be performed as follows: Whole venous blood of healthy volunteers is collected in citrate tubes. Erythrocytes are isolated by centrifuging the blood for 10 min at 2,000×g and subsequently washing twice in PBS. […] After 1 h at 37° C. under static conditions, the erythrocyte suspensions are centrifuged and the optical density of the supernatants is determined at 415 nm. The percentage of hemolysis may be calculated relative to a positive control (e.g. 1% Triton X-100).
Hemolysis assay: Whole venous blood of healthy volunteers was collected in citrate tubes. […] After 1 h at 37° C. under static conditions, the erythrocyte suspensions were centrifuged and the optical density of the supernatants was determined at 415 nm. The percentage of hemolysis was calculated relative to the positive control (1% Triton X-100).

[2] = test system: E. coli ATCC25992; experiment: Antimicrobial activity (LC99.9), killing in PBS with plating; assay type: cell-based, Escherichia coli; conditions: Gram-negative bacteria, lowest peptide concentration that killed ≥99.9% of bacteria, 37° C.
Procedure: (§1) In the context of the present invention, the test whether a peptide has an antimicrobial activity which is higher than the antimicrobial activity of peptide OP-145 (acetyl-[…]-amide (SEQ ID NO: 50)) may be performed according to any method known in the art, as for instance disclosed in Balouiri et al, 2016. In particular, S. aureus JAR060131, Enterococcus hirae ATCC 10541, Bacillus subitlis 168C trpC2 or Escherichia coli ATCC25992 are cultured to mid-logarithmic phase in tryptic soy broth, brain heart infusion (BHIB), mueller hinton (MHB) or luria broth (LB) and washed once with PBS. […] Thereafter, the number of viable bacteria is determined by plating on diagnostic sensitivity agar. Antimicrobial activity is expressed as the 99.9% killing concentration (LC99.9), i.e., the lowest peptide concentration that killed ≥99.9% of bacteria. […]
(§2) Antimicrobial activity: S. aureus JAR060131, Enterococcus hirae ATCC 10541, Bacillus subitlis 168C trpC2, Escherichia coli ATCC25992 or their variants were cultured to mid-logarithmic phase in tryptic soy broth, brain heart infusion (BHIB), mueller hinton (MHB) or luria broth (LB) and washed once with PBS. […] Thereafter, the number of viable bacteria was determined by plating on diagnostic sensitivity agar. Antimicrobial activity is expressed as the 99.9% killing concentration (LC99.9), i.e., the lowest peptide concentration that killed ≥99.9% of bacteria.

[3] = test system: multi-resistant clinical isolates; experiment: Bactericidal activity against multi-resistant clinical isolates (FIG. 4); assay type: cell-based; conditions: 1 h treatment with peptides in presence of PBS
Procedure: Bactericidal activity was tested (for 1 h treatment with peptides) in presence of PBS according to de Breij et al., 2018. Bactericidal activity is expressed as LC99.9%—is the lethal concentration causing death in 99.9% cells. Results are ranges of at least three independent experiments. If no range is given, then LC99.9 values were identical in all experiments.
(§3) Antimicrobial activity: S. aureus JAR060131, Enterococcus hirae ATCC 10541, Bacillus subitlis 168C trpC2, Escherichia coli ATCC25992 or their variants were cultured to mid-logarithmic phase in tryptic soy broth, brain heart infusion (BHIB), mueller hinton (MHB) or luria broth (LB) and washed once with PBS. Approximately 1×10^6 CFU/ml of PBS were incubated with peptide (final concentrations: 0-102.4 μM) for 0-2 h at 37° C. under shaking conditions. Thereafter, the number of viable bacteria was determined by plating on diagnostic sensitivity agar. Antimicrobial activity is expressed as the 99.9% killing concentration (LC99.9), i.e., the lowest peptide concentration that killed ≥99.9% of bacteria.

[4] = test system: Gram-negative and Gram-positive bacteria; experiment: Antimicrobial activity, overall statement; assay type: cell-based; conditions: against both Gram-negative and Gram-positive bacteria
Procedure: as §3

[5] = test system: B. subtilis 168 trpC2; experiment: Antimicrobial activity (LC99.9), killing in PBS with plating; assay type: cell-based, Bacillus subtilis; conditions: Gram-positive bacteria, lowest peptide concentration that killed ≥99.9% of bacteria, 37° C.
Procedure: as §1, §2

Row | Sequence | lysis of human erythrocytes [1] | LC99.9% [2] [µM] | antimicrobial (bactericidal) activity against multi-resistant clinical isolates [3] | antimicrobial activity compared to OP-145I12K [4] | LC99.9% [5] [µM]
1 | IGKKFKRIVRRKKRFLRKLVRPLR [SEQ ID NO: 3] | did not lyse the human erythrocytes | 3.2 | Excellent antimicrobial activity | improved antimicrobial activity | 3.2
2 | IGKEFKRIVERKWRFLRELVRPLR [SEQ ID NO: 2] | did not lyse the human erythrocytes | 6.4 | – | improved antimicrobial activity | 3.2
